Laboratory results as given in US12312627B2, “Microorganisms and methods for production of 4-hydroxybutyrate, 1,4-butanediol and related compounds” (priority 2013, dated 2025).

T1: endogenous alcohol dehydrogenase backflux activity (Escherichia coli, UniProt P27250)
T1 sequence (P27250 1-339): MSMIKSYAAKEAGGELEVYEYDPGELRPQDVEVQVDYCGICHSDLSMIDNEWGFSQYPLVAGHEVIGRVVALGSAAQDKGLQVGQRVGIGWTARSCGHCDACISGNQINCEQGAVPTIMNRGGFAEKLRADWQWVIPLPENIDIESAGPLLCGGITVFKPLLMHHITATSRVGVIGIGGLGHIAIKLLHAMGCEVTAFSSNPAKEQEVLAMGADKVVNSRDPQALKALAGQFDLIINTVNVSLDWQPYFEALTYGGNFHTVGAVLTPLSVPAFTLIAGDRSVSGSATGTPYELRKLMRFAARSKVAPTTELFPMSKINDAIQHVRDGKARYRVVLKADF


How the values were obtained:
cytochrome bo oxidase = cytochrome bo oxidase (Escherichia coli, UniProt P0ABI8); settings: read-out: Km for O2; cited from earlier work
Sequence of cytochrome bo oxidase (P0ABI8 whole entry): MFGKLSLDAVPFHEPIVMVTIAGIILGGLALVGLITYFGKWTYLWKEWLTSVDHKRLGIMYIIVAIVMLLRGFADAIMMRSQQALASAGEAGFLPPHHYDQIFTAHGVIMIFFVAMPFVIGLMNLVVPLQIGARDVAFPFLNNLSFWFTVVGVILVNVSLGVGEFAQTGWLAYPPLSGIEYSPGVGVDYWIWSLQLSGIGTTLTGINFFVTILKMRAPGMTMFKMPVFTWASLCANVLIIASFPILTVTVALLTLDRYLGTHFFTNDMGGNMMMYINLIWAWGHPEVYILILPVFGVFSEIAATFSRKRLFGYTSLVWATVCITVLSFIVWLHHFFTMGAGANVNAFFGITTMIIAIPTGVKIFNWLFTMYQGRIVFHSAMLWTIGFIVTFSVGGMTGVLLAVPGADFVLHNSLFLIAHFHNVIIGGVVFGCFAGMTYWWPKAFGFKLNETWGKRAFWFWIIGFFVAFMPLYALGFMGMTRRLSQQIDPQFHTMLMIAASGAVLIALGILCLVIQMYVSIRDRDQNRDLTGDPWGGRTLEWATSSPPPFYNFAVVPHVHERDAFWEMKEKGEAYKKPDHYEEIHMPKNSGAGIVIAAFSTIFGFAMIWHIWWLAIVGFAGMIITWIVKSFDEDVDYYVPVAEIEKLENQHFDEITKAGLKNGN
Sequence of cytochrome bo oxidase (P0ABJ1 25-315 partner): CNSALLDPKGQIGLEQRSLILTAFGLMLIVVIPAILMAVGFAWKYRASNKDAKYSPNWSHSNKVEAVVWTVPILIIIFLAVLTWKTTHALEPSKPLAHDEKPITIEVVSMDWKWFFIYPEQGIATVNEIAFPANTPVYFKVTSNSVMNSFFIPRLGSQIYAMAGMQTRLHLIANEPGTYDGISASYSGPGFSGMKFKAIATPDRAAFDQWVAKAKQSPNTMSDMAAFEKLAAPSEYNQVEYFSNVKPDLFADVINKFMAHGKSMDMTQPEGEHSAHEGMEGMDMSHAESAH
Sequence of cytochrome bo oxidase (P0ABJ3 whole entry partner): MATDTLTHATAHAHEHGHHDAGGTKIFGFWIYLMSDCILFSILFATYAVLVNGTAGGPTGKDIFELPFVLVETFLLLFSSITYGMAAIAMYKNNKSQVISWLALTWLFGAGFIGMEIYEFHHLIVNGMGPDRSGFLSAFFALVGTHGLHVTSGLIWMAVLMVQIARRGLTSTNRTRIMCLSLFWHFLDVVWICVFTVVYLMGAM
Sequence of cytochrome bo oxidase (P0ABJ6 whole entry partner): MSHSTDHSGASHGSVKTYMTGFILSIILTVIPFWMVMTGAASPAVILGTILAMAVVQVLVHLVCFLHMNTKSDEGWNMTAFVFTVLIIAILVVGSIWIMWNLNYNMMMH

cytochrome bd oxidase = settings: cited from earlier work
[1] = tested on: aminotransferase from Leishmania mexicana; settings: enzyme expressed in E. coli; cited from earlier work
[2] = target: T1, endogenous alcohol dehydrogenase backflux activity; settings: purified streptavidin-tagged protein, in the presence of NADP+
Description: The sample was purified while following the backflux activity.
The yjgB gene was cloned with a streptavidin tag, expressed and purified in order to characterize its properties.

Molecule	activity (considered 100% on tyrosine) [1] [%]	also measured
O=O [Sample O2]	–	Km (cytochrome bo oxidase): ~1 µM; Km (cytochrome bd oxidase; read-out: Km for O2): 0.01 µM
CC(C)C[C@H](N)C(=O)O [leucine]	25	–
CSCC[C@H](N)C(=O)O [methionine]	25	–
N[C@@H](Cc1ccccc1)C(=O)O [phenylalanine]	90	–
N[C@@H](Cc1c[nH]c2ccccc12)C(=O)O [tryptophan]	85	–
N[C@@H](Cc1ccc(O)cc1)C(=O)O [tyrosine]	100	–
Cytochrome bd-II	–	In vivo sp act (mol O2/mol cytochrome bd/s) (cytochrome bd oxidase; from Bekker et al. 2009): 70 ± 12 mol O2/mol cytochrome bd/s; Vmax (mol O/mol cytochrome bd/s) (cytochrome bd oxidase; from Bekker et al. 2009): 818 ± 75 mol O/mol cytochrome bd/s
yjgB: E. coli alcohol dehydrogenase yjgB (GenBank NP_418690.4) identified as carrying backflux activity (protein, UniProt P27250 1-339, looked up) Aldehyde reductase Ahr: MSMIKSYAAKEAGGELEVYEYDPGELRPQDVEVQVDYCGICHSDLSMIDNEWGFSQYPLVAGHEVIGRVVALGSAAQDKGLQVGQRVGIGWTARSCGHCDACISGNQINCEQGAVPTIMNRGGFAEKLRADWQWVIPLPENIDIESAGPLLCGGITVFKPLLMHHITATSRVGVIGIGGLGHIAIKLLHAMGCEVTAFSSNPAKEQEVLAMGADKVVNSRDPQALKALAGQFDLIINTVNVSLDWQPYFEALTYGGNFHTVGAVLTPLSVPAFTLIAGDRSVSGSATGTPYELRKLMRFAARSKVAPTTELFPMSKINDAIQHVRDGKARYRVVLKADF	–	activity with BDO as a substrate [2]: robust activity
